Columns and labels:
RCAR1/PYL9-ABI2 = test: Yeast ABA signal pathway LUC reporter, RCAR1-ABI2; format: cell-based, Arabidopsis thaliana
Description: The yeast cultivation and the life luciferase assay were performed as described ([Ruschhaupt et al., 2019]). Briefly, the reporter yeast expressing an ABA-dependent luciferase gene (LUC) was transformed with different combinations of ABA signaling components as indicated. Golden gate cloning ([Binder et al., 2014]) was used to construct pYEAST_LII_5‐6_CEN_URA vector with TDH3 promoter and TDH1 terminator (tTDH1), pYEAST_LII_1‐2_CEN_LEU vector with GK1 promoter and tTDH1, and pYEAST_LII_3‐4_CEN_TRP with the GAL1 promoter (pGAL1) and tTDH1 to express RCARs, PP2Cs, and OST1 (SnRK2.6), respectively ([Ruschhaupt et al., 2019]). […]
Colonies of freshly transformed cells were inoculated in 0.5 mL supplemented synthetic dextrose (SD) medium and incubated at 30°C in a gyratory shaker (Thermoshake-THO500, Gerhardt, Königswinter, Germany) at 200 rpm for 16-18 h. […] Light emission of yeasts was detected in a HIDEX plate luminometer (HIDEX, Turku, Finland) after injection of 100 µL freshly prepared luciferin substrate (1 mM D-luciferin, Promega) provided in 100 mM citric acid, pH 3 ([Leskinen et al., 2003]) for 5 s and was corrected for background. The LUC activity was normalized to the cell density (OD600) measured in 96-well flat plates (Sarstedt, Nümbrecht, Germany). […]

wheat plants = test: Foliar administration and thermal imaging of leaf temperature, wheat; format: in vivo, Triticum aestivum; details: 100 μM, 24 h after administration
Description: (§1) Thermal imaging was carried out as described ([Yang et al., 2016]). An assessment of the efficacy of ABA and CCPs was conducted by using 35-day-old Arabidopsis and 30-day-old wheat plants. Stock solutions (10 mM) of CCPs and ABA dissolved in dimethyl sulfoxide (DMSO) were diluted to the respective ligand concentrations (10, 30, 100 µM) in water containing 0.01% (v/v) Tween 20. Aqueous Tween 20 solutions supplemented with 0.1%, 0.3%, and 1% DMSO served for mock treatments. The solutions were sprayed onto the leaf surface until the run-off of droplets. One day after application (unless otherwise indicated), thermal imaging was conducted using the InfraTec instrument (IR-TCM 384, InfraTec, Dresden, Germany). The leaf temperature of Arabidopsis was determined as the average temperature of all leaves. The leaf temperature of wheat was determined as described ([Yang et al., 2019]).

ABI1 with RCAR11/PYR1 = tested on: ABI1 with RCAR11/PYR1; parameters: method as in Frackenpohl et al., 2018; details: ref Frackenpohl et al., 2018; cited from earlier work
Arabidopsis plants = test: Foliar administration and thermal imaging of leaf temperature (transpiration), Arabidopsis; format: in vivo, Arabidopsis thaliana
Description: as §1

RCAR11-ABI2 [1] = tested on: T1, RCAR11-ABI2; test: In vitro phosphatase assay, ABI2 with RCAR11; format: biochemical, Arabidopsis thaliana; details: 100 nM ABI2, 200 nM RCAR11
T1 construct: 6xHis (N); made in house; host or cells: Escherichia coli BL21
Description: (§2) Expression, purification, and analysis of RCAR and PP2C proteins were performed essentially as described ([Ruschhaupt et al., 2019]). Briefly, the ABA receptors RCAR1, RACR8, and RCAR11 were expressed with an aminoterminal histidine tag using the pSEVA431_LII_6xHIS::RCAR1/RCAR8/RCAR11. ABA coreceptors were expressed as histidine-tagged fusions with the maltose-binding protein using the pSEVA431_LII_6xHIS::MBP::ABI2/HAB1. All constructs were transformed and expressed in Escherichia coli strain BL21 and purified to homogeneity according to supplier’s instruction (GE Healthcare, Chicago, USA). The receptor assay was performed with 100 nM PP2C and a two-fold molar excess of RCAR. Values are means ± SD of three replicates. […] The maximum inhibition was set to 100% in the figures. The phosphatase activity was measured using 4-methylumbelliferyl-phosphate as a substrate ([Meinhard and Grill, 2001]). The increase in fluorescence was recorded over 25 min with excitation and emission wavelengths at 360 and 460 nm, respectively, using a Synergy 2 plate reader (Bio-Tec, Winooski, USA).

RCAR8/PYL5-ABI2 = tested on: T2, RCAR8/PYL5-ABI2; test: Yeast ABA signal pathway LUC reporter, RCAR8-ABI2; format: cell-based, Arabidopsis thaliana
T2 construct: expressed in transfected cells; host or cells: yeast (LUC reporter strain)
Description: (§3) The yeast cultivation and the life luciferase assay were performed as described ([Ruschhaupt et al., 2019]). Briefly, the reporter yeast expressing an ABA-dependent luciferase gene (LUC) was transformed with different combinations of ABA signaling components as indicated. Golden gate cloning ([Binder et al., 2014]) was used to construct pYEAST_LII_5‐6_CEN_URA vector with TDH3 promoter and TDH1 terminator (tTDH1), pYEAST_LII_1‐2_CEN_LEU vector with GK1 promoter and tTDH1, and pYEAST_LII_3‐4_CEN_TRP with the GAL1 promoter (pGAL1) and tTDH1 to express RCARs, PP2Cs, and OST1 (SnRK2.6), respectively ([Ruschhaupt et al., 2019]). The expression of ABF2 in yeast relies on a modified pGREG503 vector, in which pGAL1 ([Jansen et al., 2005]) was replaced by the ADH1 promoter.
(§4) Colonies of freshly transformed cells were inoculated in 0.5 mL supplemented synthetic dextrose (SD) medium and incubated at 30°C in a gyratory shaker (Thermoshake-THO500, Gerhardt, Königswinter, Germany) at 200 rpm for 16-18 h. After overnight growth, the cells were harvested and washed in SD medium followed by inoculation in SD medium containing 2% galactose for induction of SnRK2 kinases under the control of the GAL1 promoter and supplementation with ligands at indicated concentrations, to an OD600 of 0.2 in flat-bottom 96-well plates (CytoOne, Starlab, Hamburg, Germany). Yeast cultures were incubated at 30°C and 200 rpm for 16-18 h before determination of LUC activity and cell density. Light emission of yeasts was detected in a HIDEX plate luminometer (HIDEX, Turku, Finland) after injection of 100 µL freshly prepared luciferin substrate (1 mM D-luciferin, Promega) provided in 100 mM citric acid, pH 3 ([Leskinen et al., 2003]) for 5 s and was corrected for background. The LUC activity was normalized to the cell density (OD600) measured in 96-well flat plates (Sarstedt, Nümbrecht, Germany). LUC activity is given as the ratio of light emission to OD600 in counts per second.

RCAR11-ABI2 [2] = test: Yeast ABA signal pathway LUC reporter, RCAR11-ABI2; format: cell-based, Arabidopsis thaliana
Description: as §3, §4

RCAR1-ABI2 = target: T3, RCAR1-ABI2 (Arabidopsis thaliana, UniProt O04719+Q84MC7); test: In vitro phosphatase assay, ABI2 with RCAR1; format: biochemical; details: for Statistical significance of RCAR1-mediated inhibition of ABI2 phosphatase activity vs ABA: Fig. 3B
T3 construct: 6xHis (N); made in house; host or cells: Escherichia coli BL21
T3 sequence (Q84MC7 1-187): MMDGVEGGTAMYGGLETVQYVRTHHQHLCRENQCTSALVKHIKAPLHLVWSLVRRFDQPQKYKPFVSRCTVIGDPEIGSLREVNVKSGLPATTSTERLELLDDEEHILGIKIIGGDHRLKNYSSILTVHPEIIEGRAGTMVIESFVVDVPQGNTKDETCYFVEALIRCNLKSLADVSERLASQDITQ
T3 sequence (O04719 1-423): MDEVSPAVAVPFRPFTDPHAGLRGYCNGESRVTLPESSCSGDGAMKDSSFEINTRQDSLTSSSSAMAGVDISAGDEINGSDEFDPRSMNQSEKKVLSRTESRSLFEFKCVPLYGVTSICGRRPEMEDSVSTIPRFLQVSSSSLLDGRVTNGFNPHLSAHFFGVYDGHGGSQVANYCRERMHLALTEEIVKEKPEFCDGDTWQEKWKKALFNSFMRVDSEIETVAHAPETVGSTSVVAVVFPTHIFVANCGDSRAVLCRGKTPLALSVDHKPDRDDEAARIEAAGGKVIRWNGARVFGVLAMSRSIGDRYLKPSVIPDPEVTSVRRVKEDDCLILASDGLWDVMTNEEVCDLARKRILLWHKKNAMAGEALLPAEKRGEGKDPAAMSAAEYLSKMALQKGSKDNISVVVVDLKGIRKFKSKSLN
Description: as §2

RCAR8-ABI2 = test: In vitro phosphatase assay, ABI2 with RCAR8; format: biochemical, Arabidopsis thaliana; details: 100 nM ABI2, 200 nM RCAR8
Description: as §2

In the case of `CC(=C/C(=O)O)/C=C/C(O)(C(C)C)C1(C#N)CC1` (stereo not shown) [CCP1, (2Z,4E)-6-(1-cyanocyclopropyl)-3-methyl-6-hydroxy-7-methylocta-2,4-dienoic acid], the “Higher exogenous concentration required for reporter expression comparable to 1 µM ABA” value (RCAR1/PYL9-ABI2) is given as “approximately 30 x”, the “Leaf temperature increase, activity compared to ABA” value (wheat plants) is given as “higher activity than ABA” and the “Activity in in vitro inhibition of ABI1 phosphatase activity” value (ABI1 with RCAR11/PYR1) is given as “ABA-like activity”. For the same molecule, the “Potency in reducing transpiration compared to ABA” value (Arabidopsis plants; 10 µM) was “more potent than 100 µM ABA”, the Higher leaf temperature (Arabidopsis plants; 30 µM, nineteen days after administration) was 1.5 °C and the “Duration of persistent response” value (Arabidopsis plants; 10 and 30 µM ligand treatment) was 10 days. For the same molecule, the “Potency relative to ABA” value (Arabidopsis plants; 10 and 30 µM ligand vs 100 µM ABA) was “more than tenfold”, the “Duration of effect relative to ABA” value (Arabidopsis plants; 10 and 30 µM ligand vs ABA) was “approximately three times” and the “Efficiency in minimizing transpiration compared to ABA” value (Arabidopsis plants; foliar application) was “by an order of magnitude more efficient than ABA”. For the same molecule, the “ABA concentration achieving a temperature increase similar to 10 µM of the CCP” value (Arabidopsis plants; one day after application) was “about 100 µM”, the “Activity and persistence of minimized transpiration compared to ABA” value (Arabidopsis plants; single application 100 µM, recorded for 19 days) was “more active and persistent than ABA” and the “Inhibition of ABI2 compared to ABA” value (RCAR11-ABI2 [1]) was “comparable to ABA”. The “Reporter induction relative to ABA” value (RCAR8/PYL5-ABI2; 1 µM exogenous ligand) was “approximately half the ABA induction”, the “Higher level required for induction value comparable to 1 µM ABA” value (RCAR8/PYL5-ABI2; yeast, RCAR8-ABI2) was “about 10 x” and the “LUC reporter induction compared to mock-treated cells” value (RCAR11-ABI2 [2]; 30 µM exogenous ligand, 16 h exposure) was “approximately eightfold”. The “Activation of the ABA response compared to ABA” value (RCAR11-ABI2 [2]; dose-dependent, 0.1-30 µM) was “comparable activity to ABA”, the “Statistical significance of RCAR1-mediated inhibition of ABI2 phosphatase activity vs ABA” value (RCAR1-ABI2; 0.003 µM) was “ns (Otherwise, the difference is regarded as insignificant indicated as “ns”)” and the “Statistical significance of RCAR1-mediated inhibition of ABI2 phosphatase activity vs ABA” value (RCAR1-ABI2; 0.01 µM) was “s (P < 0.05 (one-way ANOVA) is considered as a significant difference and expressed as “s”)”. The “Statistical significance of RCAR1-mediated inhibition of ABI2 phosphatase activity vs ABA” value (RCAR1-ABI2; 0.03 µM) was “s (P < 0.05 (one-way ANOVA) is considered as a significant difference and expressed as “s”)”, the “Statistical significance of RCAR1-mediated inhibition of ABI2 phosphatase activity vs ABA” value (RCAR1-ABI2; 0.1 µM) was “s (P < 0.05 (one-way ANOVA) is considered as a significant difference and expressed as “s”)” and the “IC50 relative to ABA (fold higher)” value (RCAR1-ABI2; 100 nM ABI2 and 200 nM RCAR1) was “approximately 100 fold”. For the same molecule, the “Statistical significance of RCAR1-mediated inhibition of ABI2 phosphatase activity vs ABA” value (RCAR1-ABI2; 0.3 µM) was “s (P < 0.05 (one-way ANOVA) is considered as a significant difference and expressed as “s”)”, the “Statistical significance of RCAR1-mediated inhibition of ABI2 phosphatase activity vs ABA” value (RCAR1-ABI2; 1 µM) was “s (P < 0.05 (one-way ANOVA) is considered as a significant difference and expressed as “s”)” and the “Statistical significance of RCAR1-mediated inhibition of ABI2 phosphatase activity vs ABA” value (RCAR1-ABI2; 3 µM) was “s (P < 0.05 (one-way ANOVA) is considered as a significant difference and expressed as “s”)”. The “Statistical significance of RCAR1-mediated inhibition of ABI2 phosphatase activity vs ABA” value (RCAR1-ABI2; 10 µM) was “s (P < 0.05 (one-way ANOVA) is considered as a significant difference and expressed as “s”)”, the “Statistical significance of RCAR1-mediated inhibition of ABI2 phosphatase activity vs ABA” value (RCAR1-ABI2; 30 µM) was “s (P < 0.05 (one-way ANOVA) is considered as a significant difference and expressed as “s”)” and the “Statistical significance of RCAR1-mediated inhibition of ABI2 phosphatase activity vs ABA” value (RCAR1-ABI2; 100 µM) was “s (P < 0.05 (one-way ANOVA) is considered as a significant difference and expressed as “s”)”. For the same molecule, the “IC50 relative to ABA (fold higher)” value (RCAR8-ABI2) was “around 10 fold”.

Reference: PMC9894685, “Abscisic acid agonists suitable for optimizing plant water use” (Frontiers in Plant Science, 2023)
